# Reference: patent publication US20260199350A1, “FLAVONES, QUINOLINONES, QUINAZOLINONES, AND AURONES, AND USES IN CK2-MEDIATED DISEASES” (Salk Institute for Biological Studies, priority 2022, published 2026)
# Like-named read-outs stand apart in the source and are kept apart here.
# Columns and labels:
# IL-6 secretion = IL-6 secretion assay in astrocytes (Promega Lumit IL-6 kit); assay type: cell-based, human; conditions: Homo sapiens, Astrocyte; astrocytes stimulated with IL1-β, after 5 hours; read-out: IC50, secretion of IL-6
# Method: IL-6 secretion assay. HCAs were plated at 20,000 cells per well in white clear bottom 96-well plates. Two to three days later, media was removed and replaced with media containing 10 ng/mL IL1B and compound dilution series. Five hours later, plates were processed using the Lumit IL-6 Assay Kit (Promega W6030) according to the manufacturer's instructions.
# • ^1Radiometric kinase assay from Eurofins. Performed in astrocytes with a Promega Lumit IL-6 kit. A series of halogenated flavones was generated and assayed (Table 3).
# CK2A2 = molecular target: T1, CK2A2 (Homo sapiens, UniProt P19784); assay: Radiometric kinase assay (Eurofins), CK2A2; assay type: biochemical; conditions: read-out: CK2A2 RAD IC50
# T1 construct: purchased Eurofins
# T1 sequence (P19784 whole entry): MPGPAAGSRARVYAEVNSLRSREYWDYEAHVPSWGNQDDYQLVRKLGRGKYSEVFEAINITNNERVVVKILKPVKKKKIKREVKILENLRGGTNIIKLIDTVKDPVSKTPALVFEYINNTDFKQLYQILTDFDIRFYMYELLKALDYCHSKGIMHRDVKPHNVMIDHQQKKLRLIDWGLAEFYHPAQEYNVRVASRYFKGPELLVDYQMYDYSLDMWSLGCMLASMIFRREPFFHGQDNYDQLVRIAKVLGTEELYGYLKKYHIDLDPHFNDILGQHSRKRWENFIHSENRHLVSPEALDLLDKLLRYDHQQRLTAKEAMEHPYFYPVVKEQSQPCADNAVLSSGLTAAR
# Text: (§1) • ^1Radiometric kinase assay from Eurofins. Performed in astrocytes with a Promega Lumit IL-6 kit.
# CK2A1 = molecular target: T2, CK2A1 (Homo sapiens, UniProt P68400); assay: Radiometric kinase assay (Eurofins), CK2A1; assay type: biochemical; conditions: read-out: CK2A1 RAD IC50
# T2 construct: purchased Eurofins
# T2 sequence (P68400 whole entry): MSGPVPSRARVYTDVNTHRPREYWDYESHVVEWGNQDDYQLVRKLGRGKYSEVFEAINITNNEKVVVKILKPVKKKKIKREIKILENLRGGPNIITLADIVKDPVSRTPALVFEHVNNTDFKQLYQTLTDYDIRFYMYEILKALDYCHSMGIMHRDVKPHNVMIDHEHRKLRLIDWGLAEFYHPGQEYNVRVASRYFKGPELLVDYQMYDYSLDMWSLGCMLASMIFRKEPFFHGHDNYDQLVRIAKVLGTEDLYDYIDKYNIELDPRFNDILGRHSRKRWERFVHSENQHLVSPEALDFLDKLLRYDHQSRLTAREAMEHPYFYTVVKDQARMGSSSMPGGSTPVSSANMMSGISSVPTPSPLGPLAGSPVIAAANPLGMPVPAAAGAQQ
# Text: FIGS. 4A-4F characterize flavones for in vitro and in-cell CK2 inhibition. […] Representative of two independent experiments. […] Nonlinear fit was used to calculate IC50. […] Nonlinear fit was used to calculate IC50. […] Nonlinear fit was used to calculate IC50. […] Normalized to DMSO, data are representative of three independent experiments.
# as §1
SMILES,IC50 (CK2A2; Table 5) [nM],IC50 (CK2A1; Table 5) [nM],IC50 (CK2A2; Table 12) [nM],IC50 (CK2A1; Table 12) [nM],further results
"O=C(O)c1ccc2c(c1)nc(Nc1cccc(Cl)c1)c1ccncc12 [CX-4945, silmitasertib, reference compound]",,,,,IC50 (IL-6 secretion): 315 nM
O=c1[nH]c(-c2ccc(O)c(Cl)n2)nc2c(Cl)cc(Cl)cc12 [Compound 963A],,,,,IC50 (CK2A2; Table 9): 62 nM; IC50 (CK2A1; Table 9): 176 nM
O=c1[nH]c(-c2ccc(O)c(Cl)n2)nc2c(Br)cccc12 [Compound 964A],,,,,IC50 (CK2A2; Table 9): 137 nM; IC50 (CK2A1; Table 9): 155 nM
O=c1cc(-c2ccc(O)c(O)c2)oc2c(Br)cc(Br)cc12 [Compound 1004A],803,845,,,
O=c1[nH]c(-c2cc(Br)c(O)cn2)nc2c(Br)cc(Br)cc12 [Compound 1005A],,,,,IC50 (CK2A2; Table 9): 53 nM; IC50 (CK2A1; Table 9): 94 nM
O=c1[nH]c(-c2cc(Br)c(O)cn2)nc2c(Cl)cc(Cl)cc12 [Compound 1006A],,,,,IC50 (CK2A2; Table 9): 85 nM; IC50 (CK2A1; Table 9): 182 nM
O=c1[nH]c(-c2cc(Br)c(O)cn2)nc2c(Br)cccc12 [Compound 1007A],,,,,IC50 (CK2A2; Table 9): 327 nM; IC50 (CK2A1; Table 9): 380 nM
COc1cc(-c2cc(=O)c3cc(Br)c(OC)c(Br)c3o2)ncc1O [Compound 1040A],29,52,,,
COc1ccc2c(=O)cc(-c3ccc(O)c(OC)n3)oc2c1Br [Compound 1059A],251,185,,,
COc1cc(-c2cc(=O)c3cc(Br)c(OC)cc3o2)ncc1O [Compound 1063B],445,203,,,
COc1nc(-c2cc(=O)c3cc(Br)ccc3o2)ccc1O [Compound 1064A],167,124,,,
COc1cc(-c2cc(=O)c3cc(Br)ccc3o2)ncc1O [Compound 1065A],364,401,,,
O=c1cc(-c2cc(Br)c(O)cn2)[nH]c2c(Br)cc(Br)cc12 [Compound 1066A],,,,,IC50 (CK2A2; Table 7): 1290 nM; IC50 (CK2A1; Table 7): 2700 nM
COc1cc(-c2cc(=O)c3cc(Br)cc(Br)c3[nH]2)ncc1O [Compound 1077A],,,,,IC50 (CK2A2; Table 7): > 5000 nM; IC50 (CK2A1; Table 7): > 5000 nM
O=c1cc(-c2ccc(O)c(C(F)(F)F)c2)[nH]c2c(Br)cc(Br)cc12 [Compound 1095B],,,,,IC50 (CK2A2; Table 7): 699 nM; IC50 (CK2A1; Table 7): 488 nM
O=c1cc(-c2ccc(O)c(Cl)c2)[nH]c2c(Br)cc(Br)cc12 [Compound 1103A],,,,,IC50 (CK2A2; Table 7): 71 nM; IC50 (CK2A1; Table 7): 141 nM
O=c1cc(-c2ccc(O)c(C3CC3)c2)oc2c(Br)cc(Br)cc12 [Compound 1132A],> 5000,> 5000,,,
COc1c(Br)cc2c(=O)cc(-c3ccc(O)c(C4CC4)c3)oc2c1Br [Compound 1140A],> 5000,> 5000,,,
O=c1cc(-c2ccc(O)c(C3CC3)c2)oc2c(Br)cccc12 [Compound 1141A],4250,> 5000,,,
COc1ccc2c(=O)cc(-c3ccc(O)c(C4CC4)c3)oc2c1Br [Compound 1142A],2230,2790,,,
COc1nc(/C=C2\Oc3c(Br)cc(Br)cc3C2=O)ccc1O [Compound 1150A],,,109,178,
COc1nc(/C=C2\Oc3c(cc(Br)c(OC)c3Br)C2=O)ccc1O [Compound 1159A],,,590,1020,
COc1cc(/C=C2\Oc3c(Br)cc(Br)cc3C2=O)ncc1O [Compound 1163A],,,403,45,
COc1cc(/C=C2\Oc3c(cc(Br)c(OC)c3Br)C2=O)ncc1O [Compound 1164A],,,331,120,

# Second part, led by results:
IC50 (CK2A2; Table 5) [nM],IC50 (CK2A1; Table 5) [nM],IC50 (CK2A2; Table 12) [nM],IC50 (CK2A1; Table 12) [nM],SMILES,further results
1740,1890,,,COc1nc(-c2cc(=O)c3cc(Br)c(OC)c(Br)c3o2)ccc1O [Compound 1041A],
1180,2730,,,COc1cc2oc(-c3ccc(O)c(OC)n3)cc(=O)c2cc1Br [Compound 1058A],
,,> 5000,> 5000,O=C1/C(=C/c2ccc(O)c(C3CC3)c2)Oc2c(Br)cc(Br)cc21 [Compound 1131A],
,,> 5000,> 5000,COc1c(Br)cc2c(c1Br)O/C(=C\c1ccc(O)c(C3CC3)c1)C2=O [Compound 1134A],
,,> 5000,> 5000,COc1ccc2c(c1Br)O/C(=C\c1ccc(O)c(C3CC3)c1)C2=O [Compound 1135B],
,,> 5000,> 5000,O=C1/C(=C/c2ccc(O)cn2)Oc2c(Br)cc(Br)cc21 [Compound 1143A],
,,30,60,O=C1/C(=C/c2cc(Br)c(O)cn2)Oc2c(Br)cc(Br)cc21 [Compound 1173A],
,,27,86,COc1c(Br)cc2c(c1Br)O/C(=C\c1cc(Br)c(O)cn1)C2=O [Compound 1174A],
